Reference: patent US20240409585A1, “MACROCYCLIC IMMUNOMODULATORS” (priority 2021, published 2024)
Bridge positions count the residues as written; N and C are the ends. Square brackets hold non-standard residues; d marks the D form. Peptide text beside a SMILES is read from it. * marks the point of attachment. Asp(3,3-Me2) = CC(C)(C(=O)O)[C@H](N)C(=O)O; Bip = N[C@@H](Cc1ccc(-c2ccccc2)cc1)C(=O)O; Phe(3-CN) = N#Cc1cccc(C[C@H](N)C(=O)O)c1; Phe(3-F) = N[C@@H](Cc1cccc(F)c1)C(=O)O; Phe(3-Me) = Cc1cccc(C[C@H](N)C(=O)O)c1; Val(3-OH) = CC(C)(O)[C@H](N)C(=O)O; 4Pal = N[C@@H](Cc1ccncc1)C(=O)O; 2Thi = N[C@@H](Cc1cccs1)C(=O)O; Cha = N[C@@H](CC1CCCCC1)C(=O)O; Carboxymethyl = O=C(O)C*; NMeA = CN[C@@H](C)C(=O)O; Dab = NCC[C@H](N)C(=O)O

molecular target: T1, PE-labeled human PD-L1-Ig binding to Jurkat cell line over-expressing human PD-1 (Jurkat-PD-1) (Homo sapiens, UniProt Q15116); assay: Jurkat-PD-1 Cell Binding High-Content Screening Assay (CBA): Method 1; conditions: Jurkat-hPD-1 cells, PE-labeled PD-L1-Ig 20 nM final; read-out: Jurkat HPDL1 PD1 IC50 (uM) (Method 1)
T1 construct: expressed in transfected cells; host or cells: Jurkat
T1 sequence (Q15116 25-288): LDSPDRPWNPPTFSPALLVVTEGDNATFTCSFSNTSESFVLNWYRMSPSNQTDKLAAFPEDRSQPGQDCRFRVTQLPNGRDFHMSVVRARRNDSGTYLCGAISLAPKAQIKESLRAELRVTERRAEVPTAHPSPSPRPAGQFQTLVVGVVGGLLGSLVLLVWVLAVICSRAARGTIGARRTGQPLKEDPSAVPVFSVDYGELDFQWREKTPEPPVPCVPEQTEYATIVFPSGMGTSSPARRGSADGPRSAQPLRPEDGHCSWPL

Row | IC50 [µM] | SMILES
1 | 0.01 | CCNC(=O)[C@H](CCN)NC(=O)[C@@H]1CSCC(=O)N[C@@H](Cc2ccncc2)C(=O)N[C@@H](Cc2ccc(OCC(=O)O)cc2)C(=O)N[C@@H](CC(=O)O)C(=O)N[C@@H](Cc2cccc(C)c2)C(=O)N[C@@H](Cc2cccc(F)c2)C(=O)N[C@@H](Cc2ccc(-c3ccccc3)cc2)C(=O)N[C@@H](C(C)C)C(=O)N(C)[C@@H](C)C(=O)N[C@H](CC(C)C)C(=O)N[C@@H](CCN)C(=O)N[C@@H](CC2CCCCC2)C(=O)N[C@@H](C(C)(C)O)C(=O)N[C@@H](CO)C(=O)N1 [Compound 1838] ({CH2CO}-[4Pal]Y(Carboxymethyl)D[Phe(3-Me)][Phe(3-F)][Bip]V[NMeA][dL][Dab][Cha][Val(3-OH)]SC[Dab]-NHEt; thioether N-14)
2 | 0.05 | CCNC(=O)[C@H](CCN)NC(=O)[C@@H]1CSCC(=O)N[C@@H](Cc2cccs2)C(=O)N[C@@H](Cc2cccc(C#N)c2)C(=O)N[C@@H](CC(=O)O)C(=O)N[C@@H](Cc2cccc(C)c2)C(=O)N[C@@H](Cc2cccc(F)c2)C(=O)N[C@@H](Cc2ccc(-c3ccccc3)cc2)C(=O)N[C@@H](C(C)C)C(=O)N(C)[C@@H](C)C(=O)N[C@H](CC(C)C)C(=O)N[C@@H](CCN)C(=O)N[C@@H](CC2CCCCC2)C(=O)N[C@@H](C(C)(C)O)C(=O)N[C@@H](CO)C(=O)N1 [Compound 1840] ({CH2CO}-[2Thi][Phe(3-CN)]D[Phe(3-Me)][Phe(3-F)][Bip]V[NMeA][dL][Dab][Cha][Val(3-OH)]SC[Dab]-NHEt; thioether N-14)
3 | 0.02 | CCNC(=O)[C@H](CCN)NC(=O)[C@@H]1CSCC(=O)N[C@@H](Cc2cccs2)C(=O)N[C@@H](Cc2cccc(C#N)c2)C(=O)N[C@@H](CC(=O)O)C(=O)N[C@@H](Cc2cccc(C)c2)C(=O)N[C@@H](Cc2cccc(F)c2)C(=O)N[C@@H](Cc2ccc(-c3ccccc3)cc2)C(=O)N[C@@H](Cc2ccc(OCC(=O)O)cc2)C(=O)N(C)[C@@H](C)C(=O)N[C@H](CC(C)C)C(=O)N[C@@H](CCN)C(=O)N[C@@H](CC2CCCCC2)C(=O)N[C@@H](C(C)(C)O)C(=O)N[C@@H](CO)C(=O)N1 [Compound 1841] ({CH2CO}-[2Thi][Phe(3-CN)]D[Phe(3-Me)][Phe(3-F)][Bip]Y(Carboxymethyl)[NMeA][dL][Dab][Cha][Val(3-OH)]SC[Dab]-NHEt; thioether N-14)
4 | 0.02 | CCNC(=O)[C@H](CCN)NC(=O)[C@@H]1CSCC(=O)N[C@@H]([C@@H](C)O)C(=O)N[C@@H](Cc2cccc(C#N)c2)C(=O)N[C@@H](CC(=O)O)C(=O)N[C@@H](Cc2cccc(C)c2)C(=O)N[C@@H](Cc2cccc(F)c2)C(=O)N[C@@H](Cc2ccc(-c3ccccc3)cc2)C(=O)N[C@@H](Cc2ccc(OCC(=O)O)cc2)C(=O)N(C)[C@@H](C)C(=O)N[C@H](CC(C)C)C(=O)N[C@@H](CCN)C(=O)N[C@@H](CC2CCCCC2)C(=O)N[C@@H](C(C)(C)O)C(=O)N[C@@H](CO)C(=O)N1 [Compound 1842] ({CH2CO}-T[Phe(3-CN)]D[Phe(3-Me)][Phe(3-F)][Bip]Y(Carboxymethyl)[NMeA][dL][Dab][Cha][Val(3-OH)]SC[Dab]-NHEt; thioether N-14)
5 | 0.01 | CCNC(=O)[C@H](CCN)NC(=O)[C@@H]1CSCC(=O)N[C@@H](Cc2ccncc2)C(=O)N[C@@H](Cc2cccc(C#N)c2)C(=O)N[C@@H](CC(=O)O)C(=O)N[C@@H](Cc2cccc(C)c2)C(=O)N[C@@H](Cc2cccc(F)c2)C(=O)N[C@@H](Cc2ccc(-c3ccccc3)cc2)C(=O)N[C@@H](Cc2ccc(OCC(=O)O)cc2)C(=O)N(C)[C@@H](C)C(=O)N[C@H](CC(C)C)C(=O)N[C@@H](CCN)C(=O)N[C@@H](CC2CCCCC2)C(=O)N[C@@H](C(C)(C)O)C(=O)N[C@@H](CO)C(=O)N1 [Compound 1843] ({CH2CO}-[4Pal][Phe(3-CN)]D[Phe(3-Me)][Phe(3-F)][Bip]Y(Carboxymethyl)[NMeA][dL][Dab][Cha][Val(3-OH)]SC[Dab]-NHEt; thioether N-14)
6 | 0.02 | CCNC(=O)[C@H](CCN)NC(=O)[C@@H]1CSCC(=O)N[C@@H]([C@@H](C)O)C(=O)N[C@@H](Cc2ccc(OCC(=O)O)cc2)C(=O)N[C@@H](CC(=O)O)C(=O)N[C@@H](Cc2cccc(C)c2)C(=O)N[C@@H](Cc2cccc(F)c2)C(=O)N[C@@H](Cc2ccc(-c3ccccc3)cc2)C(=O)N[C@@H](Cc2ccc(OCC(=O)O)cc2)C(=O)N(C)[C@@H](C)C(=O)N[C@H](CC(C)C)C(=O)N[C@@H](CCN)C(=O)N[C@@H](CC2CCCCC2)C(=O)N[C@@H](C(C)(C)O)C(=O)N[C@@H](CO)C(=O)N1 [Compound 1844] ({CH2CO}-TY(Carboxymethyl)D[Phe(3-Me)][Phe(3-F)][Bip]Y(Carboxymethyl)[NMeA][dL][Dab][Cha][Val(3-OH)]SC[Dab]-NHEt; thioether N-14)
7 | 0.01 | CCNC(=O)[C@H](CCN)NC(=O)[C@@H]1CSCC(=O)N[C@@H](Cc2ccncc2)C(=O)N[C@@H](Cc2ccc(OCC(=O)O)cc2)C(=O)N[C@@H](CC(=O)O)C(=O)N[C@@H](Cc2cccc(C)c2)C(=O)N[C@@H](Cc2cccc(F)c2)C(=O)N[C@@H](Cc2ccc(-c3ccccc3)cc2)C(=O)N[C@@H](Cc2ccc(OCC(=O)O)cc2)C(=O)N(C)[C@@H](C)C(=O)N[C@H](CC(C)C)C(=O)N[C@@H](CCN)C(=O)N[C@@H](CC2CCCCC2)C(=O)N[C@@H](C(C)(C)O)C(=O)N[C@@H](CO)C(=O)N1 [Compound 1845] ({CH2CO}-[4Pal]Y(Carboxymethyl)D[Phe(3-Me)][Phe(3-F)][Bip]Y(Carboxymethyl)[NMeA][dL][Dab][Cha][Val(3-OH)]SC[Dab]-NHEt; thioether N-14)
8 | 0.02 | Cc1cccc(C[C@@H]2NC(=O)[C@H](CC(=O)O)NC(=O)[C@H](Cc3ccc(OCC(=O)O)cc3)NC(=O)[C@H](CCN)NC(=O)CSC[C@@H](C(=O)N[C@@H](CCN)C(N)=O)NC(=O)[C@H](CO)NC(=O)[C@H](C(C)(C)O)NC(=O)[C@H](CC3CCCCC3)NC(=O)[C@H](CCN)NC(=O)[C@@H](CC(C)C)NC(=O)[C@H](C)N(C)C(=O)[C@H](C(C)(C)C(=O)O)NC(=O)[C@H](Cc3ccc(-c4ccccc4)cc3)NC(=O)[C@H](Cc3ccc(OCC(=O)O)cc3)NC2=O)c1 [Compound 1846] ({CH2CO}-[Dab]Y(Carboxymethyl)D[Phe(3-Me)]Y(Carboxymethyl)[Bip][Asp(3,3-Me2)][NMeA][dL][Dab][Cha][Val(3-OH)]SC[Dab]-NH2; thioether N-14)
9 | 0.7 | Cc1cccc(C[C@@H]2NC(=O)[C@H](CC(=O)O)NC(=O)[C@H](Cc3ccc(OCC(=O)O)cc3)NC(=O)[C@H](CCN)NC(=O)CSC[C@@H](C(=O)N[C@H](C(N)=O)C(C)(C)C(=O)O)NC(=O)[C@H](CO)NC(=O)[C@H](C(C)(C)O)NC(=O)[C@H](CC3CCCCC3)NC(=O)[C@H](CCN)NC(=O)[C@@H](CC(C)C)NC(=O)[C@H](C)N(C)C(=O)[C@H](Cc3ccc(OCC(=O)O)cc3)NC(=O)[C@H](Cc3ccc(-c4ccccc4)cc3)NC(=O)[C@H](Cc3ccc(OCC(=O)O)cc3)NC2=O)c1 [Compound 1847] ({CH2CO}-[Dab]Y(Carboxymethyl)D[Phe(3-Me)]Y(Carboxymethyl)[Bip]Y(Carboxymethyl)[NMeA][dL][Dab][Cha][Val(3-OH)]SC[Asp(3,3-Me2)]-NH2; thioether N-14)
